# Laboratory results taken from ChEMBL document CHEMBL5154900, “Design and Synthesis of Dual EZH2/BRD4 Inhibitors to Target Solid Tumors” (J Med Chem, 2022).
# Calls of active or inactive are those of the source. The calls are words filed in the database; no cut-off is given here.
# What was measured:
# ASPC1 [1] = assay: Effect on ADRB2 mRNA levels in human ASPC1 cells at 5 uM incubated for 48 hrs by RT-qPCR analysis; type: functional, cell-based
# A549 [2] = assay: Effect on TXINP mRNA levels in human A549 cells at 5 uM incubated for 48 hrs by RT-qPCR analysis; type: functional, cell-based
# A549 [3] = assay: Effect on TRHDE mRNA levels in human A549 cells at 5 uM incubated for 48 hrs by RT-qPCR analysis; type: functional, cell-based
# [4] = Toxicity in BALB/c mouse xenografted with human A549 cells assessed as adverse effects at 60 mg/kg, ip administered 6 times weekly for 38 days; type: organism-based; conditions: in vivo, 912 h, time 38 day
# ASPC1 [5] = assay: Antitumor activity against human ASPC1 cells assessed as inhibition of colony formation measured after 12 to 20 days by crystal violet staining based analysis; type: functional, cell-based; conditions: dose <= 0.1 µM, time 12-20 day, DDE = dose-dependent effect
# A549 [6] = assay: Induction of apoptosis in human A549 cells assessed as downregulation of Bcl-xl protein at 1 uM inubated for 72 hrs by Western blot analysis; type: functional, cell-based
# A549 [7] = assay: Effect on ADRB2 mRNA levels in human A549 cells at 5 uM incubated for 48 hrs by RT-qPCR analysis; type: functional, cell-based
# [8] = Tmax in 12 hr fasted BALB/c mouse at 80 mg/kg, po measured for 0.083 to 24 hrs by UPLC-MS/MS analysis; type: ADME, organism-based; conditions: in vivo, time 0.083-24 hrs
# [9] = target: T1, Bromodomain-containing protein 4 (Homo sapiens, UniProt O60885); assay: Inhibition of BRD4 in human A549 cells assessed as increase in p21 levels incubated for 72 hrs by Western blot analysis; type: cell-based; conditions: dose <= 2.5 µM, DDE = dose-dependent effect
# ASPC1 [10] = assay: Effect on TXINP mRNA levels in human ASPC1 cells at 5 uM incubated for 48 hrs by RT-qPCR analysis; type: functional, cell-based
# [11] = target: T2, Histone-lysine N-methyltransferase EZH2 (Homo sapiens, UniProt Q15910); assay: Binding affinity to EZH2 in human A549 cell lysate assessed as increase in thermal stability at 10 uM incubated for 1 hr followed by temperature treatment at 45 to 54.5 degC for 3 mins by thermal shift assay; type: subcellular; conditions: time 63.0 min
# [12] = Toxicity in BALB/c mouse xenografted with human A549 cells assessed as body weight loss at 60 mg/kg, ip administered 6 times weekly for 38 days; type: organism-based; conditions: in vivo, 912 h, time 38 day
# [13] = target: T2, Histone-lysine N-methyltransferase EZH2; assay: Inhibition of EZH2 in human ASPC1 cells assessed as decrease in H3K27me3 levels at 1 uM incubated for 72 hrs by Western blot analysis; type: cell-based
# HCT-116 [14] = assay: Effect on TRHDE mRNA levels in human HCT-116 cells at 5 uM incubated for 48 hrs by RT-qPCR analysis; type: functional, cell-based
# HCT-116 [15] = assay: Induction of cell cycle arrest in 24 hr starved human HCT-116 cells assessed as accumulation at G0/G1 phase at 1 uM measured after 48 hrs by PI staining based flow cytometric analysis; type: functional
# [16] = Bioavailability in 12 hr fasted BALB/c mouse at 80 mg/kg, po measured for 0.083 to 24 hrs by UPLC-MS/MS analysis; type: ADME, organism-based; conditions: in vivo, time 0.083-24 hrs
# [17] = target: T2, Histone-lysine N-methyltransferase EZH2; assay: Inhibition of EZH2 in human A549 cells assessed as decrease in H3K27me3 level at 0.05 uM incubated for 72 hrs by Western blot analysis; type: cell-based
# HCT-116 [18] = assay: Induction of apoptosis in human HCT116 cells assessed as downregulation of Bcl-xl protein at 1 uM inubated for 72 hrs by Western blot analysis; type: functional, cell-based
# A549 [19] = assay: Antitumor activity against human A549 cells xenografted in BALB/c mouse assessed as tumor growth inhibition at 80 mg/kg, ip administered 3 times weekly for 40 days and measured every 3 days relative to control; type: functional; design: scale not given: the % may be the effect or the level left; conditions: time 40 day
# ASPC1 [20] = assay: Effect on TRHDE mRNA levels in human ASPC1 cells at 5 uM incubated for 48 hrs by RT-qPCR analysis; type: functional, cell-based
# HCT-116 [21] = assay: Induction of apoptosis in human HCT116 cells assessed as downregulation of Bcl-2 protein at 1 uM inubated for 72 hrs by Western blot analysis; type: functional, cell-based
# A549 [22] = assay: Induction of apoptosis in human A549 cells assessed as upregulation of p21 protein at 1 uM inubated for 72 hrs by Western blot analysis; type: functional, cell-based
# [23] = Cmax in 12 hr fasted BALB/c mouse at 80 mg/kg, po measured for 0.083 to 24 hrs by UPLC-MS/MS analysis; type: ADME, organism-based; design: dose 80 mg/kg, time 0.083-24 hrs, route po; conditions: in vivo
# ASPC1 [24] = assay: Induction of apoptosis in human ASPC-1 cells assessed as upregulation of p21 protein at 1 uM inubated for 72 hrs by Western blot analysis; type: functional, cell-based
# ASPC1 [25] = assay: Induction of cell cycle arrest in 24 hr starved human ASPC1 cells assessed as accumulation at G0/G1 phase at 1 uM measured after 48 hrs by PI staining based flow cytometric analysis; type: functional
# [26] = AUC in 12 hr fasted BALB/c mouse at 80 mg/kg, po measured for 0.083 to 24 hrs by UPLC-MS/MS analysis; type: ADME, organism-based; design: time upper 24 hrs, dose 80 mg/kg, time lower 0.083 hrs, route po; conditions: in vivo
# HCT-116 [27] = assay: Effect on TXINP mRNA levels in human HCT-116 cells at 5 uM incubated for 48 hrs by RT-qPCR analysis; type: functional, cell-based
# HCT-116 [28] = assay: Effect on ADRB2 mRNA levels in human HCT-116 cells at 5 uM incubated for 48 hrs by RT-qPCR analysis; type: functional, cell-based
# [29] = Permeability of compound across apical to basolateral side in human Caco-2 cells measured for 1 to 3 hrs by LC-MS analysis; type: ADME, cell-based; conditions: time 1-3 hrs
# A549 [30] = assay: Antiproliferative activity against human A549 cells assessed as inhibition of cell proliferation at 1 uM incubated for 4 days by cell counter method; type: functional, cell-based; conditions: time 4.0 day
# A549 [31] = assay: Antitumor activity against human A549 cells xenografted in BALB/c mouse assessed as reduction in tumor volume at 60 mg/kg, ip administered 6 times weekly for 38 days and measured every 3 days relative to control; type: functional; design: scale not given: the % may be the effect or the level left; conditions: time 38 day
# [32] = target: T2, Histone-lysine N-methyltransferase EZH2; assay: Inhibition of EZH2 in human ASPC1 cells assessed as decrease in H3K27me3 level at 0.05 uM incubated for 72 hrs by Western blot analysis; type: cell-based
# ASPC1 [33] = assay: Induction of apoptosis in human ASPC-1 cells assessed as downregulation of Bcl-2 protein at 1 uM inubated for 72 hrs by Western blot analysis; type: functional, cell-based
# [34] = target: T1, Bromodomain-containing protein 4; assay: Binding affinity to BRD4 in human A549 cell lysate assessed as increase in thermal stability at 10 uM incubated for 1 hr followed by temperature treatment at 45 to 54.5 degC for 3 mins by thermal shift assay; type: subcellular; conditions: time 63.0 min
# HCT-116 [35] = assay: Induction of apoptosis in human HCT116 cells assessed as upregulation of p21 protein at 1 uM inubated for 72 hrs by Western blot analysis; type: functional, cell-based
# A549 [36] = assay: Inhibition of EZH2/BRD4 in human A549 cell lysate assessed as ternary complex formation at 1 uM preincubated for 24 hrs for 30 mins followed by DSP treatment by co-immunoprecipitation method; type: subcellular; conditions: time 24.5 hrs
# [37] = Cmax in 12 hr fasted BALB/c mouse at 80 mg/kg, ip measured for 0.083 to 24 hrs by UPLC-MS/MS analysis; type: ADME, organism-based; design: dose 80 mg/kg, time upper 24 hrs, time lower 0.083 hrs, route ip; conditions: in vivo
# T2 sequence (Q15910 whole entry, looked up): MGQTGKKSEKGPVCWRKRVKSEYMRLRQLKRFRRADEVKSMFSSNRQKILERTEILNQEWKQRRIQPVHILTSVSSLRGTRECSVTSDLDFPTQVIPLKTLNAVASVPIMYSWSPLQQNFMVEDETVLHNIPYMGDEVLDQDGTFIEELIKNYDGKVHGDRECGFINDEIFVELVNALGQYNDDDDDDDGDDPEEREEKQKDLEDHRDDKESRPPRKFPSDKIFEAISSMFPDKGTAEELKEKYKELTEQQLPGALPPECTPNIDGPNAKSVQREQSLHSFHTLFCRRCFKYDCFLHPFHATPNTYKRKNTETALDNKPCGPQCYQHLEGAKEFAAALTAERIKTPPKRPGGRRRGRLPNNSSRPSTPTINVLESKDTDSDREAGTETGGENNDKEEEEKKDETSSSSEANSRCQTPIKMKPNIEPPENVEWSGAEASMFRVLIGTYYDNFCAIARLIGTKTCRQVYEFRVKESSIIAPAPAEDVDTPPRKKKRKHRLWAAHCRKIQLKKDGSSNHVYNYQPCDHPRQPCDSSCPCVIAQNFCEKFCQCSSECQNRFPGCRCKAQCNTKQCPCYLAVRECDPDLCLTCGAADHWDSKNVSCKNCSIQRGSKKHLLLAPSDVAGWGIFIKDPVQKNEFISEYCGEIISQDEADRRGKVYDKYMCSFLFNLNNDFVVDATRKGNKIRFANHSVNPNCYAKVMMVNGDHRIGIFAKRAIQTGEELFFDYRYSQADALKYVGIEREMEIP
structure (smiles),measurement,setting,value
CCN(c1cc(-c2ccc(OCCCCCNC(=O)C[C@@H]3N=C(c4ccc(Cl)cc4)c4c(sc(C)c4C)-n4c(C)nnc43)cc2)cc(C(=O)NCc2c(C)cc(C)[nH]c2=O)c1C)C1CCOCC1,Activity,ASPC1 [1],Active
same,Activity,A549 [2],Active
same,Activity,A549 [3],Active
same,Activity,[4],Non-Toxic
same,Activity,ASPC1 [5],Dde
same,Activity,A549 [6],Active
same,Activity,A549 [7],Active
same,Tmax,[8],1 h
same,inhibition,[9],Dde
same,Activity,ASPC1 [10],Active
same,Activity,[11],Active
same,Activity,[12],Non-Toxic
same,inhibition,[13],Active
same,Activity,HCT-116 [14],Active
same,Activity,HCT-116 [15],Active
same,bioavailability,[16],4.94%
same,inhibition,[17],Active
same,Activity,HCT-116 [18],Active
same,Activity,A549 [19],62.3%
same,Activity,ASPC1 [20],Active
same,Activity,HCT-116 [21],Active
same,Activity,A549 [22],Active
same,Cmax,[23],4380 ng/mL
same,Activity,ASPC1 [24],Active
same,Activity,ASPC1 [25],Active
same,AUC,[26],13500 ng·h/mL
same,Activity,HCT-116 [27],Active
same,Activity,HCT-116 [28],Active
same,permeability,[29],Impermeable
same,Activity,A549 [30],Active
same,Activity,A549 [31],63.4%
same,inhibition,[32],Active
same,Activity,ASPC1 [33],Active
same,Activity,[34],Active
same,Activity,HCT-116 [35],Active
same,inhibition,A549 [36],Active
same,Cmax,[37],27100 ng/mL
